Test results published in PubChem BioAssay (NCI).
Several values for one entry are separate records, joined by “and”; a condition that tells them apart may be missing. Identical values can stand only once.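 Interpolation was linear, between the two tested concentrations surrounding the appropriate level; five concentrations were tested over 48 hours in 96-well plates. GI50 = concentration required for 50% inhibition of growth. At the TGI there is no net growth.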

How the values were obtained:
Experiment in all cases: DTP human tumour cell line panel, 48 h
EKVX NSCLC = test system: EKVX NSCLC
IGROV1 ovarian = test system: IGROV1 ovarian
NCI-H460 lung = test system: NCI-H460 lung
NCI-H522 lung = test system: NCI-H522 lung
OVCAR-3 ovarian = test system: OVCAR-3 ovarian
RXF 393 renal = test system: RXF 393 renal
SF-268 CNS = test system: SF-268 CNS
SW-620 colon = test system: SW-620 colon
T-47D breast = test system: T-47D breast
UACC-257 melanoma = test system: UACC-257 melanoma

SMILES	TGI (EKVX NSCLC)	TGI (IGROV1 ovarian)	TGI (NCI-H460 lung)	TGI (NCI-H522 lung)	TGI (OVCAR-3 ovarian)	TGI (RXF 393 renal)	TGI (SF-268 CNS)	TGI (SW-620 colon)	TGI (T-47D breast)	TGI (UACC-257 melanoma)	GI50 (EKVX NSCLC)	GI50 (IGROV1 ovarian)	GI50 (NCI-H460 lung)	GI50 (NCI-H522 lung)	GI50 (OVCAR-3 ovarian)	GI50 (RXF 393 renal)	GI50 (SF-268 CNS)	GI50 (SW-620 colon)	GI50 (T-47D breast)	GI50 (UACC-257 melanoma)
CC(NNC(=S)N1CCN(c2ccccn2)CC1)c1nccc2ccccc12 (stereo not drawn)	11.4 µM	18.5 µM	11.3 µM	14 µM	13.2 µM	8.53 µM	14.5 µM	20.1 µM	16.9 µM	12.9 µM	–	–	–	–	–	–	–	–	–	–
CCC(=O)OCOc1ccc(/C=C2\CCC(CN(C)C)C2=O)cc1 (stereo not drawn)	37.9 µM	16.3 µM	32.7 µM	4.41 µM	8.29 µM	9.55 µM	22.5 µM	7.38 µM	9 µM	10.6 µM	–	–	–	–	–	–	–	–	–	–
CCN1CCN(c2ccc(NC(=O)Nc3nc4ccc(-c5ccccc5OC)cc4s3)cc2)CC1	3.12 µM	3.61 µM	3.27 µM	3.5 µM	3.11 µM	3.3 µM	3.63 µM	3.55 µM	3.61 µM	3.79 µM	1.51 µM	1.87 µM	1.77 µM	1.75 µM	1.64 µM	1.7 µM	1.87 µM	1.94 µM	1.58 µM	2.11 µM
COc1cc2c(cc1OCC(=O)Nc1ccc(Cl)cc1C(=O)c1ccccc1Cl)N=CC1CCCN1C2=O (stereo not drawn)	35.1 µM	16.4 µM	27.1 µM	7.17 µM	14.6 µM	15.6 µM	33 µM	25.8 µM	22.2 µM	30.2 µM	20.3 µM	3.9 µM	11.1 µM	2.59 µM	3.72 µM	4.31 µM	12.9 µM	11.8 µM	5.21 µM	16.6 µM
Clc1ccc2c(NC3CCC(N4CCCCC4)CC3)ccnc2c1 (stereo not drawn)	> 100 µM	> 100 µM	33.2 µM	51.6 µM	59.2 µM	43.7 µM	> 100 µM	> 100 µM	> 100 µM	29.4 µM	–	–	–	–	–	–	–	–	–	–
CC(C)[C@@H](C(=O)O[C@@H]1/C=C/C(=O)O[C@@H](C)CCC/C=C/[C@@H]2C[C@H](O)C[C@H]21)N(C)C	64.9 µM	> 89 µM	> 76.3 µM	> 75 µM	26.7 µM	44.1 µM	> 45 µM	20.7 µM	> 100 µM	> 81.9 µM	12.5 µM	30.3 µM	24.7 µM	26.6 µM	6.34 µM	7.33 µM	7.33 µM	7.03 µM	30 µM	20.8 µM
c1ccc2c(N=NSc3ncnc4nc[nH]c34)c3ccccc3nc2c1	12.8 µM	8.6 µM	5.67 µM	3.36 µM	8.78 µM	2.87 µM	6.53 µM	–	11 µM	6.56 µM	2.61 µM	2.73 µM	0.877 µM	1.35 µM	2.43 µM	0.967 µM	1.8 µM	–	1.44 µM	0.662 µM
COc1ccc2c3ccnc(C(F)(F)F)c3n(CCCCN)c2c1	23.6 µM	14.5 µM	17.7 µM	21.4 µM	15.3 µM	6.93 µM	21.5 µM	14.6 µM	23.8 µM	8.41 µM	5.42 µM	3.39 µM	5.18 µM	6.22 µM	3.82 µM	2.3 µM	6.62 µM	3.28 µM	6.86 µM	3.02 µM
O=C1C2=C(C(=O)c3ccccc31)C(O)(S(=O)(=O)O)C(O)(S(=O)(=O)O)C1N=CC=CC21 (stereo not drawn)	31.9 µM and 14.5 µM	9.5 µM	11.7 µM and 6.25 µM	39.6 µM and 5.71 µM	6.78 µM and 11.7 µM	28.6 µM and 11.9 µM	41.4 µM and 32.1 µM	96.9 µM and 17.2 µM	28.5 µM and 30.7 µM	47.7 µM	3.32 µM and 2.71 µM	2.19 µM	2.84 µM and 1.39 µM	4.8 µM and 2.13 µM	2.33 µM and 2.86 µM	5.73 µM and 2.98 µM	3.93 µM and 5.96 µM	3.65 µM and 4.29 µM	3.97 µM and 4.7 µM	10.8 µM
COC(=O)Nc1nc2ccc(C(=O)c3cccc(I)c3)cc2[nH]1	> 87.9 µM	8.82 µM	4.33 µM	9.59 µM	0.207 µM	1.05 µM	17.5 µM	14.9 µM	> 100 µM	> 100 µM	0.176 µM	0.11 µM	0.0407 µM	0.0778 µM	0.0332 µM	0.0494 µM	0.18 µM	0.0394 µM	16.5 µM	15.1 µM
NC1CC(=O)c2c(-c3cccs3)sc(-c3cccs3)c21 (stereo not drawn)	> 100 µM	> 100 µM	> 100 µM	87.5 µM	92.4 µM	> 100 µM	> 100 µM	58 µM	36.5 µM	> 100 µM	51.3 µM	27.3 µM	38.7 µM	22.1 µM	26.1 µM	59.1 µM	30.8 µM	9.11 µM	10.7 µM	52.3 µM
COc1cc2ncnc(Oc3ccc(NC(=O)Nc4ccc(CN5CCOCC5)c(C(F)(F)F)c4)c4ccccc34)c2cc1OC	5.91 µM	3.25 µM	3.64 µM	3.25 µM	6.15 µM	5.69 µM	8.94 µM	7.43 µM	5.17 µM	4.12 µM	0.463 µM	0.517 µM	1.37 µM	0.419 µM	1.17 µM	0.692 µM	0.453 µM	1.04 µM	0.477 µM	0.964 µM
COc1cc(OC)c(/C=C/C(=O)c2c(OC)cc(OC)cc2OC)c(OC)c1	> 100 µM	25.2 µM	7.74 µM	4.18 µM	0.8 µM	4.99 µM	6.96 µM	2.91 µM	> 100 µM	> 100 µM	3.61 µM	0.577 µM	0.976 µM	0.515 µM	0.233 µM	1.3 µM	1.84 µM	0.417 µM	2.01 µM	3.58 µM
